This is an account of results in patent publication US11850334B2, “Immobilised biological entities” (CARMEDA AB, priority 2018, dated 2023).

This test has as its system FXa. As to the kind of experiment: Anti-FXa activity of heparin fragments in solution, compared with International Standard (Evaluation Method C). As to conditions: not immobilized, calculated towards Low Molecular Heparin 2nd International Standard. Format: biochemical. As for the experimental part:
Evaluation Method C: Anti-FXa Activity Determination of Heparin Fragments in Solution, Compared with International Standard
The anticoagulant activity of the heparin fragments are determined in an anti-FXa assay. This method measures anti-FXa activity of heparin essentially according to USP<208> Anti-FXa and Anti-FIIa assays for unfractionated and low molecular weight heparins. The method is based on heparin's ability to accelerate antithrombin inhibition of FXa in vitro, where the residual FXa activity is detected using a chromogenic FXa substrate (CS 11(65)). The results expressed as IU/mg (international unit/mg) are calculated using the parallel-line model, towards the Low Molecular Heparin 2nd International Standard.
Anti-FXa activity was determined by Evaluation Method Con example 1.2 (alpha), 1.1 (beta), 2.1, 2.2 and 2.3 (see Table 3). All heparin fragments tested were in solution and not immobilized to a surface.

In the case of “5-Aminopentyl 2-deoxy-2-sulfamido-6-O-sulfo-α-D-glucopyranosyl-(1→4)-β-D-glucopyranosyluronic acid-(1→4)-2-deoxy-2-sulfamido-3,6-di-O-sulfo-α-D-glucopyranosyl-(1→4)-2-O-sulfo-α-L-idopyranosyluronic acid-(1→4)-2-deoxy-2-sulfamido-6-O-sulfo-β-D-glucopyranoside [Example 1.1]”, the anti-FXa activity is on record as 385 IU/mg. The result for `NCCCCCO[C@H]1O[C@H](COS(=O)(=O)O)[C@@H](O[C@@H]2O[C@@H](C(=O)O)[C@@H](O[C@H]3O[C@H](COS(=O)(=O)O)[C@@H](O[C@@H]4O[C@H](C(=O)O)[C@@H](O[C@H]5O[C@H](COS(=O)(=O)O)[C@@H](O)[C@H](O)[C@H]5NS(=O)(=O)O)[C@H](O)[C@H]4O)[C@H](OS(=O)(=O)O)[C@H]3NS(=O)(=O)O)[C@H](O)[C@H]2OS(=O)(=O)O)[C@H](O)[C@H]1NS(=O)(=O)O` [Example 1.2, 5-Aminopentyl 2-deoxy-2-sulfamido-6-O-sulfo-α-D-glucopyranosyl-(1→4)-β-D-glucopyranosyluronic acid-(1→4)-2-deoxy-2-sulfamido-3,6-di-O-sulfo-α-D-glucopyranosyl-(1→4)-2-O-sulfo-α-L-idopyranosyluronic acid-(1→4)-2-deoxy-2-sulfamido-6-O-sulfo-α-D-glucopyranoside] reads 330 IU/mg.
